# pIC50: −log10 of the molar value. Entries after “also recorded” stand apart in the source; their conditions may differ. Where no end group is shown, it is not given here.
# How the values were obtained:
# HCC2429 = assay: Apoptosis by annexin V labelling and flow cytometry after Notch3 peptide treatment; assay type: cell-based, human; conditions: HCC2429, compared to control
# Experimental: (FIG. 14A) HCC2429 was treated with Notch3 peptides N16, N17, N102, N103, N132. […] MRK003-treated cell is used as positive control. After treatment, cells were labeled with annexin V and detected using flow cytometry. […] MRK003-treated cells were used as positive control. Sequences N16: CFNTLGGHS, N17: CVCVNGWTGES, N102: CATAV, N103: CFHGAT, N132: CLNGGS. […]
# [1] = system: Notch3-dependent gene Hey1; assay: Hey1 transcription by real-time RT-PCR after peptide treatment; assay type: cell-based, human
# Jagged1 = target: T1, Jagged1 (Homo sapiens, UniProt P78504); assay: Streptavidin pull-down of peptides from Jagged1-HA transfected HEK cells, anti-HA immunoblot; assay type: binding; conditions: HEK cells transfected with Jagged1-HA, anti-HA blot
# T1 construct: expressed in transfected cells; host or cells: HEK cells
# T1 sequence (P78504 34-1218, species assumed): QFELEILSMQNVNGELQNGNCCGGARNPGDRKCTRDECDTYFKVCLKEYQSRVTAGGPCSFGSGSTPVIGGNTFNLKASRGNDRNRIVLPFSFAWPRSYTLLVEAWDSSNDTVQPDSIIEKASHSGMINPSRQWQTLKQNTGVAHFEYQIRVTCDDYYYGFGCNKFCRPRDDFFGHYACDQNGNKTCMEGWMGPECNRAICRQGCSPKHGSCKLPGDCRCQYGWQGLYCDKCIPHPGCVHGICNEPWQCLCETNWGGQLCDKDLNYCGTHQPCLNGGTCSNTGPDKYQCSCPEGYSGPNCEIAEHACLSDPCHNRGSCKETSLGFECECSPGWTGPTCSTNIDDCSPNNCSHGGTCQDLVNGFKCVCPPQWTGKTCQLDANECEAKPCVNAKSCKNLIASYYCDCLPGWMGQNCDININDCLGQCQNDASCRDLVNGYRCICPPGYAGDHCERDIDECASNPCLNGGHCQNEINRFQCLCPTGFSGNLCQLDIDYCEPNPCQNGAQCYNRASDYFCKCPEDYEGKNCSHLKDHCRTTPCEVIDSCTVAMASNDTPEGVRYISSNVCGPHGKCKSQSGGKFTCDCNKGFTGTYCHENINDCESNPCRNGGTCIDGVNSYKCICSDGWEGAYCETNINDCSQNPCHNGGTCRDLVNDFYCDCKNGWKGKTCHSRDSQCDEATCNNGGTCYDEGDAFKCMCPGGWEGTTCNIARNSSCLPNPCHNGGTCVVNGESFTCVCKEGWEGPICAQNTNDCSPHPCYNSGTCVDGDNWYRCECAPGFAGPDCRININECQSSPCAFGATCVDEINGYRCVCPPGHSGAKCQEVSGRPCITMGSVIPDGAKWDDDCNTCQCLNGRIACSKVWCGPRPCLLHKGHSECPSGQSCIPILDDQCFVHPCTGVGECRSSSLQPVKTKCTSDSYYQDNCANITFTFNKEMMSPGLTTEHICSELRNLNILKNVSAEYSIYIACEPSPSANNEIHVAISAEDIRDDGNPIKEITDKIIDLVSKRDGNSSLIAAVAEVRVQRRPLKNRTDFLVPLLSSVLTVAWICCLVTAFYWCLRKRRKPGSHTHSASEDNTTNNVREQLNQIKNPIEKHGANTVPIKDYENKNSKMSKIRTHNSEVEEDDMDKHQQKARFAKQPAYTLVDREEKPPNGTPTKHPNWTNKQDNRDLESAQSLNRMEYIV
# Experimental: FIG. 15. […] HEK cells were transfected with Jagged1-HA and treated with Notch3 peptides. The peptides were then immunoprecipitated from cell lysate with streptavidin beads and immunoblotted with anti-HA antibody. No: no input; C: control peptide. Sequences N16: CFNTLGGHS, N17: CVCVNGWTGES, N102: CATAV, N103: CFHGAT, N132: CLNGGS.
# (§1) Each of 155 different peptides were assayed in quadruplicate, and only those peptides that produced a significant increase of fluorescence signal in all 4 wells were considered potentially positive or capable of inducing apoptosis. The bar graphs here reflect fluorescence counts. […] The peptides were then immunoprecipitated from cell lysate with streptavidin beads and immunoblotted with anti-HA antibody.
# H460 = assay: Sensitivity to AG1478 with and without Notch3 inhibition (DN construct or γ-secretase inhibitor); assay type: cell-based, human
# Source text: (§2) FIGS. 11A-B. Notch3 modulates the EGF pathway and increases sensitivity to an EGFr inhibitor. (FIG. 11A) In HCC2429, inhibition of the Notch3 pathway increases sensitivity to AG1478 nearly 40-fold. […] (FIG. 11B) A similar observation is made in H460 when the inventors combine AG1478 with L-685,458, a γ-secretase inhibitor, further supporting the hypothesis that EGF cooperates with the Notch pathway in oncogenesis.
# (§3) EGFr Inhibitors Enhance the Anti-proliferation Effect of Notch3 Inhibition. […] Based on existing literature and their observations, the inventors hypothesized that Notch3 acts synergistically with the EGFR pathway in the promotion and the survival of lung cancer cells and that combining inhibitors of both pathways will have synergistic therapeutic value. To test this hypothesis, the inventors examined whether inhibiting the Notch3 pathway increases tumor inhibition when lung cancer cells are treated with an EGFR tyrosine kinase inhibitor, AG1478. […] Synergism can also be observed when the γ-secretase inhibitor L-685,458 is added to AG1478 (FIG. 11B). […] From a therapeutic standpoint, Notch3 is a good target for therapeutic intervention both alone and in combination with growth factor receptor inhibitors.
# HCC2429 cells [2] = assay: Sensitivity to the EGFR tyrosine kinase inhibitor AG1478 with and without Notch3 inhibition (DN construct); assay type: cell-based, human
# Source text: as §2, §3
# [3] = Apoptosis (percentage of annexin V positive cells) after Fc-fusion protein treatment; assay type: cell-based; conditions: 40 hrs treatment, compared to control and Fc control
# Experimental: […] […] Apoptosis was determined by percentage of annexin V positive cells. Sequences N16: CFNTLGGHS, N17: CVCVNGWTGES, N132: CLNGGS.
# [4] = Peptide screen for apoptosis by Annexin V staining using an FMAT system; assay type: cell-based; conditions: FMAT screen of 155 peptides, quadruplicate
# Experimental: FIG. 13. […] Each of 155 different peptides were assayed in quadruplicate, and only those peptides that produced a significant increase of fluorescence signal in all 4 wells were considered potentially positive or capable of inducing apoptosis. The bar graphs here reflect fluorescence counts. Sequences N102: CATAV, N103: CFHGAT, N105: CVSNP, N132: CLNGGS.
# as §1
# HCC2429 xenografts = assay: MRK003 treatment of subcutaneous HCC2429 xenografts; assay type: in vivo, mice
# Experimental: (FIG. 8A) Xenografts injected with HCC2429 were treated with MRK003 once the tumors became palpable. After 2 weeks of treatment, the inventors observed about a 50% reduction in tumor size. […] Histological examination of resected tumors from xenografts at the end of treatment.
# To assess the effect of pharmacologically inhibiting Notch activation in vivo, the inventors treated subcutaneous xenografts with MRK003, a γ-secretase inhibitor from Merck, Inc. & Co. Based on the manufacturer's recommended dose, the mice were treated with 100 mg/kg orally for 3 consecutives days per week once the tumors were palpable. At the end of a 2-week treatment, the animals were then euthanized, and the tumors were harvested.
# HCC2429 cells [5] = assay: Cell survival with MRK003 in HCC2429 clones expressing Notch3 siRNA; assay type: cell-based, human; conditions: HCC2429 clones with loss of Notch3 (siRNA-N3)
# Experimental: HCC2429 cells are sensitive to GSI, and the sensitivity increases in low serum, similarly to that observed with clones expressing the DN construct. Tumor cells treated with DMSO alone had no change in cell viability. (FIG. 7B) Inhibition of S3 proteolytic processing results in the decrease of Notch3 intracellular domain (N3ICD) and accumulation of S2 product (N3ΔE) after 3 hours. (FIG. 7C) In this experiment, HCC2429 was stably transfected with plasmid vector expressing Notch3 siRNA.
# A γ-Secretase Inhibitor Reduces Proliferation in Lung Cancer Cells. Proteolytic processing of Notch receptors is required for activation. As previously described, three proteolytic cleavage sites are involved in enabling Notch signaling. In the final step, the membrane-associated Notch fragment is cleaved within its transmembrane domain by a γ-secretase-containing protein complex. Mammalian presenilins (PS-1 and PS-2) are polytopic transmembrane proteins that appear to function as aspartyl proteases within a multiprotein, γ-secretase complex (Wolfe and Kopan, 2004). Presenilins provide the active site of the proteolytic activity. This last cleavage releases the Notch intracellular domain, initiating CBF-1-mediated signaling. […]
# [6] = system: HCC2429 lung cancer cell line; assay: Soft-agar colony assay, MRK003 with AG1478; assay type: cell-based, human
# Source text: FIGS. 12A-B. In HCC2429 lung cancer cell line, Notch inhibitor MRK003 enhances the effect of EGFR inhibitor AG1478 on colony formation in soft agar. […] (FIG. 12B) Graph depicts the quantitative decrease in colony formation.
# as §3
binding to ligand Jagged1 (Jagged1),Molecule,"apoptosis (annexin V, flow cytometry) (HCC2429)",transcription of Notch3-dependent gene Hey1 [1],apoptosis by Annexin V staining (fluorescence counts) [4],also measured
binding to ligand Jagged1,"CVCVNGWTGES [N17, Notch3 peptide]",Induction of apoptosis; also recorded: highest apoptotic activity,reduced transcription of Notch3-dependent gene Hey1; also recorded: best reduction in Hey1 transcription,–,–
binding to ligand Jagged1,"CATAV [N102, Notch3 peptide]",Induction of apoptosis,reduced transcription of Notch3-dependent gene Hey1,induce apoptosis,–
binding to ligand Jagged1,"CLNGGS [N132, Notch3 peptide]",Induction of apoptosis,reduced transcription of Notch3-dependent gene Hey1,induce apoptosis,–
binding to ligand Jagged1,"CFHGAT [N103, Notch3 peptide]",Induction of apoptosis,reduced transcription of Notch3-dependent gene Hey1,induce apoptosis,–

# Second part, the molecule before the results:
Molecule,binding to ligand Jagged1 (Jagged1),"apoptosis (annexin V, flow cytometry) (HCC2429)",transcription of Notch3-dependent gene Hey1 [1],apoptosis by Annexin V staining (fluorescence counts) [4],also measured
"CFNTLGGHS [N16, Notch3 peptide]",binding to ligand Jagged1,Induction of apoptosis,reduced transcription of Notch3-dependent gene Hey1,–,–
COc1cc2ncnc(Nc3cccc(Cl)c3)c2cc1OC [AG1478],–,–,–,–,"pIC50 (H460; H460, without Notch3 inhibition): 4.62; reduction of cancer cell survival upon inhibition of the Notch3 pathway (H460; H460 treated with AG1478): approximately two-fold; pIC50 (H460; H460 with inhibition of the Notch3 pathway): 4.92; increase in sensitivity to AG1478 upon inhibition of the Notch3 pathway (HCC2429 cells [2]; HCC2429, DN construct versus control): 40 fold; pIC50 (HCC2429 cells [2]; HCC2429, EGF-supplemented media, without Notch3 inhibition): 5.08; pIC50 (HCC2429 cells [2]; HCC2429 clones transfected with the DN (dominant-negative Notch3) construct, EGF-supplemented media): 6.70"
N16-17-Fc: Purified recombinant Fc-fusion Notch3 protein with N16-17 sequences (CFNTLGGHSCVCVNGWTGES; cysteine pairing not given here; also: Fc fusion (dimerising Fc left off)),–,–,–,–,apoptosis (percentage of annexin V positive cells) [3]: induces apoptosis
"CC(C)C[C@H](NC(=O)[C@H](Cc1ccccc1)C[C@@H](O)[C@H](Cc1ccccc1)NC(=O)OC(C)(C)C)C(=O)N[C@@H](Cc1ccccc1)C(N)=O [L-685,458]",–,–,–,–,"combined effect of L-685,458 added to AG1478 (H460; H460 (FIG. 11B)): Synergism"
"CVSNP [N105, Notch3 peptide]",–,–,–,induce apoptosis,–
O=S1(=O)N[C@@]2(CN1CC(F)(F)F)[C@@H]1CC[C@H]2Cc2ccc(/C=C/CN3CCC(C(F)(F)F)CC3)cc2C1 [MRK003],–,–,–,–,"tumor size (HCC2429 xenografts; 100 mg/kg orally, 3 consecutive days per week, end of 2-week treatment): reduction of tumor size; reduction in tumor size (HCC2429 xenografts; HCC2429 xenografts, 100 mg/kg orally, 3 consecutive days per week, after 2 weeks of treatment): ~50%; histological examination of resected tumors (HCC2429 xenografts; end of treatment, compared to control): Marked necrosis; activated Notch3 (N3ICD) in tumor (HCC2429 xenografts; xenograft tumors treated with MRK003): reduction in activated Notch3 (N3ICD); also recorded: Loss of activated Notch3 (N3ICD); cell survival when treated with MRK003 (HCC2429 cells [5]): no loss in cell survival; colony formation in soft agar ([6]; HCC2429, MRK003 alone): decreases colony formation; colony formation in soft agar, combination with EGFR inhibitor AG1478 ([6]; HCC2429, MRK003 combined with AG1478): additive effects; also recorded: enhances the effect of AG1478 on growth"
